Assay results as given in US8669315B2, “Polycarbonate compositions and methods for the manufacture and use thereof” (SABIC Innovative Plastics IP B.V., priority 2011, dated 2014).

Experiments:
[1] = molecular target: T1, recombinant human estradiol receptors (rhER) alpha (α) (Homo sapiens, UniProt P03372); assay: in vitro competitive binding assay, displacement of [3H]estradiol from rhER alpha; conditions: running text, highest concentration 2.5×E−4 M
T1 sequence (P03372 1-595): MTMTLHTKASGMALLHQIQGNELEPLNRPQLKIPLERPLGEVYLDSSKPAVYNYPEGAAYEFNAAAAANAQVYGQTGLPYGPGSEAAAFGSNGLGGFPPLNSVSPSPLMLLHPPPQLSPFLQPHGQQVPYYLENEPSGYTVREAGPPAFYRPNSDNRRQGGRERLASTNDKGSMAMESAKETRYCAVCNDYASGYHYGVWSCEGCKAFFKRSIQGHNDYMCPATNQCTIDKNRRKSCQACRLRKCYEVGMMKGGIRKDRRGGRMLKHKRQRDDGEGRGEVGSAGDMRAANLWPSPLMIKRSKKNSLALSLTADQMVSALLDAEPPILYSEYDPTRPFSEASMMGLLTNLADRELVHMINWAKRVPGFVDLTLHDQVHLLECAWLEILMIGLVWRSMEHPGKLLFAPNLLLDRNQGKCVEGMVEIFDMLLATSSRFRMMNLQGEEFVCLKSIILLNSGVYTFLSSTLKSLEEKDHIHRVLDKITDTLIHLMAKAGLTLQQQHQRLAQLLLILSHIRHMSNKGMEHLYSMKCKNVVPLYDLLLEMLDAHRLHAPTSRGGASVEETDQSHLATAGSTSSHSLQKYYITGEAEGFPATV

[2] = molecular target: recombinant human estradiol receptors (rhER) beta 1 (β1) (Homo sapiens, UniProt Q92731); assay: in vitro competitive binding assay, displacement of [3H]estradiol from rhER beta 1; conditions: highest concentration 2.5×E−4 M

CC(C)(c1ccccc1)c1ccc(O)cc1 [B, p-Cumyl Phenol, reference compound]
estradiol binding / displacement at the alpha estradiol receptor (in words) [1]: displace estradiol
estradiol binding / displacement at the beta estradiol receptor (in words) ([2]; running text): displace estradiol

Oc1ccc(Oc2ccc(O)cc2)cc1 [C, Dihydroxy Diphenyl Ether, reference compound]
estradiol binding / displacement at the beta estradiol receptor (in words) ([2]; running text): displace estradiol

CC(c1ccccc1)(c1ccc(O)cc1)c1ccc(O)cc1 [D, Bisphenol Acetophenone, reference compound]
estradiol binding / displacement at the alpha estradiol receptor (in words) [1]: displace estradiol

O=C1c2ccccc2C(c2ccc(O)cc2)(c2ccc(O)cc2)N1c1ccccc1 [Example 4, N-Phenyl Phenolphthalein Bisphenol]
estradiol binding / displacement at the alpha estradiol receptor (in words) [1]: no detectible estradiol displacement
estradiol binding / displacement at the alpha estradiol receptor (in words) ([1]; listed as N-phenyl phenolphthalein bisphenol): no estradiol binding
estradiol binding / displacement at the beta estradiol receptor (in words) ([2]; running text): no detectible estradiol displacement
estradiol binding / displacement at the beta estradiol receptor (in words) ([2]; running text, listed as N-phenyl phenolphthalein bisphenol): no estradiol binding

Oc1cccc(O)c1 [Example 5, Resorcinol]
estradiol binding / displacement at the alpha estradiol receptor (in words) [1]: no detectible estradiol displacement
estradiol binding / displacement at the alpha estradiol receptor (in words) ([1]; listed as resorcinol): no estradiol binding
estradiol binding / displacement at the beta estradiol receptor (in words) ([2]; running text): no detectible estradiol displacement
estradiol binding / displacement at the beta estradiol receptor (in words) ([2]; running text, listed as resorcinol): no estradiol binding

Cc1cc(O)ccc1O [Example 9, Methyl Hydroquinone]
estradiol binding / displacement at the beta estradiol receptor (in words) ([2]; running text): no alpha or beta estradiol displacement
estradiol binding / displacement at the beta estradiol receptor (in words) ([2]; running text, listed as methyl hydroquinone): no estradiol binding

COC(=O)CCC(C)(c1ccc(O)cc1)c1ccc(O)cc1 [F, Diphenolic Acid Methyl Ester, reference compound]
estradiol binding / displacement at the alpha estradiol receptor (in words) [1]: displace estradiol
estradiol binding / displacement at the beta estradiol receptor (in words) ([2]; running text): displace estradiol

Cc1cc(C2(c3ccc(O)c(C)c3)CCCCC2)ccc1O [H, Dimethyl Cyclohexyl Bisphenol, reference compound]
estradiol binding / displacement at the alpha estradiol receptor (in words) [1]: displacement of estradiol
estradiol binding / displacement at the beta estradiol receptor (in words) ([2]; running text): displacement of estradiol

CC(C)(c1ccc(O)cc1)c1cccc(C(C)(C)c2ccc(O)cc2)c1 [L, Bisphenol M, reference compound]
estradiol binding / displacement at the alpha estradiol receptor (in words) [1]: displace estradiol at low concentrations
estradiol binding / displacement at the beta estradiol receptor (in words) ([2]; running text): displace estradiol at low concentrations

O=C1OC(c2ccc(O)cc2)(c2ccc(O)cc2)c2ccccc21 [P, Phenolphthalein, reference compound]
estradiol binding / displacement at the beta estradiol receptor (in words) ([2]; running text): estradiol displacement at low concentration

Biphenol [Example 7]
estradiol binding / displacement at the alpha estradiol receptor (in words) [1]: no displacement
estradiol binding / displacement at the alpha estradiol receptor (in words) ([1]; listed as biphenol): no estradiol binding
estradiol binding / displacement at the beta estradiol receptor (in words) ([2]; running text): no estradiol binding

Bis Hydroxy Phenyl Menthane [reference compound]
estradiol binding / displacement at the alpha estradiol receptor (in words) [1]: displace estradiol at low concentrations
estradiol binding / displacement at the beta estradiol receptor (in words) ([2]; running text): displace estradiol at low concentrations

Fluorenone Bis o-Cresol [J, reference compound]
estradiol binding / displacement at the beta estradiol receptor (in words) ([2]; running text): displace estradiol at low concentrations

Tetra Methyl BPA [Example 2]
estradiol binding / displacement at the beta estradiol receptor (in words) ([2]; listed as tetra methyl bisphenol-A): no estradiol binding
estradiol binding / displacement at the beta estradiol receptor (in words) ([2]; running text): no detectible estradiol displacement
